# Assay results as given in patent publication US8410302B2, “Methoxyimino compounds and fungicide composition comprising same” (Kyung Nong Corporation, priority 2007, dated 2013).
# Like-named read-outs stand apart in the source and are kept apart here.
# Key:
# [1] = tested on: Pyricularia oryzae Carvara KA301; assay: whole plant or invertebrate; type: in vivo; conditions: for pest or weed control at 2 ppm / pest or weed control at 10 ppm / pest or weed control at 50 ppm / pest or weed control at 100 ppm: Pyricularia oryzae, read-out: RCB control value (C.V.); for RCB control value (C.V.): rice blast
# Botrytis cinerae = assay: Fungicidal activity against cucumber gray mold rot (CGM) disease, control value; type: in vivo
# Phytophthora infestans = assay: whole plant or invertebrate; type: in vivo; conditions: for pest or weed control at 2 ppm / pest or weed control at 10 ppm / pest or weed control at 50 ppm / pest or weed control at 100 ppm: Phytophthora infestans, in Solanum lycopersicum, read-out: TLB control value (C.V.); for TLB control value (C.V.): tomato late blight
# Puccinia recondita = assay: Fungicidal activity against wheat leaf rust (WLR) disease, control value; type: in vivo; conditions: for pest or weed control at 2 ppm / pest or weed control at 10 ppm / pest or weed control at 50 ppm / pest or weed control at 100 ppm: read-out: WLR control value (C.V.)
# Erysiphae graminis = assay: Fungicidal activity against barley powdery mildew (BPM) disease, control value; type: in vivo; conditions: for pest or weed control at 2 ppm / pest or weed control at 10 ppm / pest or weed control at 50 ppm / pest or weed control at 100 ppm: 168 h, read-out: BPM control value (C.V.)
# Rhizoctonia solani AG-1 = assay: Fungicidal activity against rice sheath blight (RSB) disease, control value; conditions: for pest or weed control at 2 ppm / pest or weed control at 10 ppm / pest or weed control at 50 ppm / pest or weed control at 100 ppm: Rhizoctonia solani, AG1, in Oryza sativa, read-out: RSB control value (C.V.); for RSB control value (C.V.): rice sheath blight
# [2] = Botrytis, 100 ppm, read-out: CGM control value (C.V.)
# [3] = Botrytis, 100 ppm, cucumber gray mold rot, read-out: CGM control value (C.V.)
# [4] = Hordeum vulgare, 2 ppm, barley powdery mildew
# [5] = Hordeum vulgare, 10 ppm, barley powdery mildew
# [6] = Hordeum vulgare, 50 ppm, barley powdery mildew
# [7] = Hordeum vulgare, 100 ppm, barley powdery mildew
smiles,measurement,setting,value
"CNC(=O)/C(=N/OC)c1ccccc1COc1ccc(F)cc1C=C(Br)Br [Example 80, (E)-2-(2-((2-(2,2-dibromovinyl)-4-fluorophenoxy)methyl)phenyl)-2-methoxyimino-N-methylacetamide]",pest or weed control at 2 ppm,[1],35%
same,pest or weed control at 10 ppm,[1],90%
same,pest or weed control at 50 ppm,[1],100%
same,pest or weed control at 100 ppm,[1],100%
same,pest or weed control at 100 ppm,Botrytis cinerae; [2],55%
same,pest or weed control at 2 ppm,Phytophthora infestans,70%
same,pest or weed control at 10 ppm,Phytophthora infestans,90%
same,pest or weed control at 50 ppm,Phytophthora infestans,98%
same,pest or weed control at 100 ppm,Phytophthora infestans,100%
same,pest or weed control at 2 ppm,"Puccinia recondita; Puccinia recondita, 2 ppm",95%
same,pest or weed control at 10 ppm,"Puccinia recondita; Puccinia recondita, 10 ppm",100%
same,pest or weed control at 50 ppm,"Puccinia recondita; Puccinia recondita, 50 ppm",100%
same,pest or weed control at 100 ppm,"Puccinia recondita; Puccinia recondita, 100 ppm",100%
same,pest or weed control at 2 ppm,Erysiphae graminis; 2 ppm,90%
same,pest or weed control at 10 ppm,Erysiphae graminis; 10 ppm,100%
same,pest or weed control at 50 ppm,Erysiphae graminis; 50 ppm,100%
same,pest or weed control at 100 ppm,Erysiphae graminis; 100 ppm,100%
same,pest or weed control at 2 ppm,Rhizoctonia solani AG-1,65%
same,pest or weed control at 10 ppm,Rhizoctonia solani AG-1,98%
same,pest or weed control at 50 ppm,Rhizoctonia solani AG-1,100%
same,pest or weed control at 100 ppm,Rhizoctonia solani AG-1,100%
"CNC(=O)/C(=N/OC)c1ccccc1COc1ccc(C)cc1C=C(Cl)Cl [Example 46, (E)-2-(2-((2-(2,2-dichlorovinyl)-4-methylphenoxy)methyl)phenyl)-2-methoxyimino-N-methylacetamide]",pest or weed control at 2 ppm,[1],95%
same,pest or weed control at 10 ppm,[1],100%
same,pest or weed control at 50 ppm,[1],100%
same,pest or weed control at 100 ppm,[1],100%
same,pest or weed control at 100 ppm,Botrytis cinerae; [3],30%
same,pest or weed control at 2 ppm,Phytophthora infestans,96%
same,pest or weed control at 10 ppm,Phytophthora infestans,100%
same,pest or weed control at 50 ppm,Phytophthora infestans,100%
same,pest or weed control at 100 ppm,Phytophthora infestans,100%
same,pest or weed control at 2 ppm,"Puccinia recondita; 2 ppm, wheat leaf rust",100%
same,pest or weed control at 10 ppm,"Puccinia recondita; 10 ppm, wheat leaf rust",100%
same,pest or weed control at 50 ppm,"Puccinia recondita; 50 ppm, wheat leaf rust",100%
same,pest or weed control at 100 ppm,"Puccinia recondita; 100 ppm, wheat leaf rust",100%
same,pest or weed control at 2 ppm,Erysiphae graminis; [4],100%
same,pest or weed control at 10 ppm,Erysiphae graminis; [5],100%
same,pest or weed control at 50 ppm,Erysiphae graminis; [6],100%
same,pest or weed control at 100 ppm,Erysiphae graminis; [7],100%
same,pest or weed control at 2 ppm,Rhizoctonia solani AG-1,98%
same,pest or weed control at 10 ppm,Rhizoctonia solani AG-1,100%
same,pest or weed control at 50 ppm,Rhizoctonia solani AG-1,100%
same,pest or weed control at 100 ppm,Rhizoctonia solani AG-1,100%
"CO/N=C(/C(=O)OC)c1ccccc1COc1c(OC)ccc(C=C(Cl)Cl)c1Br [Example 51, methyl-(E)-2-(2-((2-bromo-3-(2,2-dichlorovinyl)-6-methoxyphenoxy)methyl)phenyl)-2-methoxyiminoacetate]",pest or weed control at 2 ppm,[1],90%
same,pest or weed control at 10 ppm,[1],100%
same,pest or weed control at 50 ppm,[1],100%
same,pest or weed control at 100 ppm,[1],100%
same,pest or weed control at 100 ppm,Botrytis cinerae; [3],75%
same,pest or weed control at 2 ppm,Phytophthora infestans,90%
same,pest or weed control at 10 ppm,Phytophthora infestans,97%
same,pest or weed control at 50 ppm,Phytophthora infestans,100%
same,pest or weed control at 100 ppm,Phytophthora infestans,100%
same,pest or weed control at 2 ppm,"Puccinia recondita; 2 ppm, wheat leaf rust",100%
same,pest or weed control at 10 ppm,"Puccinia recondita; 10 ppm, wheat leaf rust",100%
same,pest or weed control at 50 ppm,"Puccinia recondita; 50 ppm, wheat leaf rust",100%
same,pest or weed control at 100 ppm,"Puccinia recondita; 100 ppm, wheat leaf rust",100%
same,pest or weed control at 2 ppm,Erysiphae graminis; [4],100%
same,pest or weed control at 10 ppm,Erysiphae graminis; [5],100%
same,pest or weed control at 50 ppm,Erysiphae graminis; [6],100%
same,pest or weed control at 100 ppm,Erysiphae graminis; [7],100%
same,pest or weed control at 2 ppm,Rhizoctonia solani AG-1,90%
same,pest or weed control at 10 ppm,Rhizoctonia solani AG-1,98%
same,pest or weed control at 50 ppm,Rhizoctonia solani AG-1,100%
same,pest or weed control at 100 ppm,Rhizoctonia solani AG-1,100%
"CO/N=C(/C(=O)OC)c1ccccc1COc1cc(Br)ccc1C=C(Cl)Cl [Example 61, methyl-(E)-2-(2-((5-bromo-2-(2,2-dichlorovinyl)phenoxy)methyl)phenyl)-2-methoxyiminoacetate]",pest or weed control at 2 ppm,[1],99%
same,pest or weed control at 10 ppm,[1],100%
same,pest or weed control at 50 ppm,[1],100%
same,pest or weed control at 100 ppm,[1],100%
same,pest or weed control at 50 ppm,"Botrytis cinerae; Botrytis, 50 ppm, read-out: CGM control value (C.V.)",40%
same,pest or weed control at 100 ppm,Botrytis cinerae; [2],85%
same,pest or weed control at 2 ppm,Phytophthora infestans,99%
same,pest or weed control at 10 ppm,Phytophthora infestans,100%
same,pest or weed control at 50 ppm,Phytophthora infestans,100%
same,pest or weed control at 100 ppm,Phytophthora infestans,100%
same,pest or weed control at 2 ppm,"Puccinia recondita; Puccinia recondita, 2 ppm",100%
same,pest or weed control at 10 ppm,"Puccinia recondita; Puccinia recondita, 10 ppm",100%
same,pest or weed control at 50 ppm,"Puccinia recondita; Puccinia recondita, 50 ppm",100%
same,pest or weed control at 100 ppm,"Puccinia recondita; Puccinia recondita, 100 ppm",100%
same,pest or weed control at 2 ppm,Erysiphae graminis; 2 ppm,100%
same,pest or weed control at 10 ppm,Erysiphae graminis; 10 ppm,100%
same,pest or weed control at 50 ppm,Erysiphae graminis; 50 ppm,100%
same,pest or weed control at 100 ppm,Erysiphae graminis; 100 ppm,100%
same,pest or weed control at 2 ppm,Rhizoctonia solani AG-1,95%
same,pest or weed control at 10 ppm,Rhizoctonia solani AG-1,100%
same,pest or weed control at 50 ppm,Rhizoctonia solani AG-1,100%
same,pest or weed control at 100 ppm,Rhizoctonia solani AG-1,100%
"CNC(=O)/C(=N/OC)c1ccccc1COc1cc(C=C(Br)Br)ccc1OC [Example 72, (E)-2-(2-((5-(2,2-dibromovinyl)-2-methoxyphenoxy)methyl)phenyl)-2-methoxyimino-N-methylacetamide]",pest or weed control at 2 ppm,[1],80%
same,pest or weed control at 10 ppm,[1],99%
same,pest or weed control at 50 ppm,[1],100%
same,pest or weed control at 100 ppm,[1],100%
same,pest or weed control at 100 ppm,Botrytis cinerae; [2],79%
same,pest or weed control at 2 ppm,Phytophthora infestans,70%
same,pest or weed control at 10 ppm,Phytophthora infestans,90%
same,pest or weed control at 50 ppm,Phytophthora infestans,100%
same,pest or weed control at 100 ppm,Phytophthora infestans,100%
same,pest or weed control at 2 ppm,"Puccinia recondita; Puccinia recondita, 2 ppm",97%
same,pest or weed control at 10 ppm,"Puccinia recondita; Puccinia recondita, 10 ppm",100%
same,pest or weed control at 50 ppm,"Puccinia recondita; Puccinia recondita, 50 ppm",100%
same,pest or weed control at 100 ppm,"Puccinia recondita; Puccinia recondita, 100 ppm",100%
same,pest or weed control at 2 ppm,Erysiphae graminis; 2 ppm,98%
same,pest or weed control at 10 ppm,Erysiphae graminis; 10 ppm,100%
same,pest or weed control at 50 ppm,Erysiphae graminis; 50 ppm,100%
same,pest or weed control at 100 ppm,Erysiphae graminis; 100 ppm,100%
same,pest or weed control at 2 ppm,Rhizoctonia solani AG-1,75%
same,pest or weed control at 10 ppm,Rhizoctonia solani AG-1,98%
same,pest or weed control at 50 ppm,Rhizoctonia solani AG-1,100%
same,pest or weed control at 100 ppm,Rhizoctonia solani AG-1,100%
"CNC(=O)/C(=N/OC)c1ccccc1CON=C(C)c1ccc(C=C(Cl)Br)cc1 [Example 38, (E)-2-[[[[[2-[4-(2-bromo-2-chlorovinyl)phenyl](1-methyl)methylidene]amino]oxy]methyl]phenyl]-2-methoxyimino-N-methylacetamide]",RCB control value (C.V.),[1]; 2 ppm,100%
same,RCB control value (C.V.),[1]; 10 ppm,100%
same,RCB control value (C.V.),[1]; 50 ppm,100%
same,RCB control value (C.V.),[1]; 100 ppm,100%
same,CGM control value (C.V.),"Botrytis cinerae; 100 ppm, cucumber gray mold rot",65%
same,TLB control value (C.V.),Phytophthora infestans; 2 ppm,30%
same,TLB control value (C.V.),Phytophthora infestans; 10 ppm,80%
same,TLB control value (C.V.),Phytophthora infestans; 50 ppm,100%
same,TLB control value (C.V.),Phytophthora infestans; 100 ppm,100%
same,WLR control value (C.V.),"Puccinia recondita; 2 ppm, wheat leaf rust",100%
same,WLR control value (C.V.),"Puccinia recondita; 10 ppm, wheat leaf rust",100%
same,WLR control value (C.V.),"Puccinia recondita; 50 ppm, wheat leaf rust",100%
same,WLR control value (C.V.),"Puccinia recondita; 100 ppm, wheat leaf rust",100%
same,BPM control value (C.V.),"Erysiphae graminis; 2 ppm, barley powdery mildew",95%
same,BPM control value (C.V.),"Erysiphae graminis; 10 ppm, barley powdery mildew",98%
same,BPM control value (C.V.),"Erysiphae graminis; 50 ppm, barley powdery mildew",100%
same,BPM control value (C.V.),"Erysiphae graminis; 100 ppm, barley powdery mildew",100%
same,RSB control value (C.V.),Rhizoctonia solani AG-1; 2 ppm,80%
same,RSB control value (C.V.),Rhizoctonia solani AG-1; 10 ppm,95%
same,RSB control value (C.V.),Rhizoctonia solani AG-1; 50 ppm,98%
same,RSB control value (C.V.),Rhizoctonia solani AG-1; 100 ppm,100%
"CO/N=C(/C(=O)OC)c1ccccc1COc1cccc(C=C(F)Cl)c1 [Example 11, methyl-(2E)-2-(2-((3-(2-chloro-2-fluorovinyl)phenoxy)methyl)phenyl)-2-methoxyiminoacetate]",pest or weed control at 50 ppm,[1],70%
same,pest or weed control at 100 ppm,[1],95%
same,pest or weed control at 100 ppm,Botrytis cinerae; [3],43%
same,pest or weed control at 100 ppm,Phytophthora infestans,60%
same,pest or weed control at 10 ppm,"Puccinia recondita; 10 ppm, wheat leaf rust",40%
same,pest or weed control at 50 ppm,"Puccinia recondita; 50 ppm, wheat leaf rust",90%
same,pest or weed control at 100 ppm,"Puccinia recondita; 100 ppm, wheat leaf rust",100%
same,pest or weed control at 50 ppm,Erysiphae graminis; [6],60%
same,pest or weed control at 100 ppm,Erysiphae graminis; [7],90%
same,pest or weed control at 100 ppm,Rhizoctonia solani AG-1,30%
